Data from ChEMBL document CHEMBL2203055, “From α4β2 Nicotinic Ligands to the Discovery of σ1 Receptor Ligands: Pharmacophore Analysis and Rational Design” (ACS Med Chem Lett, 2012).

Experiments:
PC-12 = test: Displacement of [3H]DTG from sigma 2 receptor in rat PC12 cell membrane at 10 uM after 2 hrs by microbeta scintillation counting analysis; type: cell membranes
[1] = target: Sigma non-opioid intracellular receptor 1 (Rattus norvegicus) (UniProt Q9R0C9); test: Displacement of [3H]pentazocine from sigma 1 receptor in rat brain membrane at 10 uM after 2.5 hrs by microbeta scintillation counting analysis; type: cell membranes
Chain of Sigma non-opioid intracellular receptor 1 (Rattus norvegicus) (Q9R0C9 whole entry): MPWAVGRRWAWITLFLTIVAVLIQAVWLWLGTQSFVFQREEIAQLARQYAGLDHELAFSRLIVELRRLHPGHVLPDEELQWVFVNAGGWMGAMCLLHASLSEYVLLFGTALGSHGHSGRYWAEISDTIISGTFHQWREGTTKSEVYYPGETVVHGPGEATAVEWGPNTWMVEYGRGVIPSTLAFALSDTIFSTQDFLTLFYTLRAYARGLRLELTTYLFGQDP

[2] = target: Sigma non-opioid intracellular receptor 1 (Rattus norvegicus, UniProt Q9R0C9); test: Displacement of [3H]pentazocine from sigma 1 receptor in rat brain membrane after 2.5 hrs by microbeta scintillation counting analysis; type: cell membranes
Chain of Sigma non-opioid intracellular receptor 1 (Rattus norvegicus, UniProt Q9R0C9) (Q9R0C9 whole entry): as above

[3] = Displacement of [3H]DTG from sigma 2 receptor in rat PC12 cell membrane after 2 hrs by microbeta scintillation counting analysis; type: cell membranes; conditions: pc-12
[4] = target: Sigma non-opioid intracellular receptor 1 (Homo sapiens, UniProt Q99720); test: Binding affinity to sigma 1 receptor
Chain of Sigma non-opioid intracellular receptor 1 (Homo sapiens, UniProt Q99720) (Q99720 whole entry): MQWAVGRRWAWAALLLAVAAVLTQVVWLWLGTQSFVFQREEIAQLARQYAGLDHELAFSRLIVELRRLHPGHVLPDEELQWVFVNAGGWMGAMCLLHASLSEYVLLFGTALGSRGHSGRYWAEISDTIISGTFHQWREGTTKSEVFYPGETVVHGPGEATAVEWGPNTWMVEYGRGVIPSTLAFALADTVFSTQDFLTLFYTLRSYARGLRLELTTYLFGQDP

[5] = target: Neuronal acetylcholine receptor; alpha4/beta4 (Rattus norvegicus, UniProt P09483+P12392); test: Displacement of [3H]epibatidine from alpha4beta4 nAChR after 4 hrs by liquid scintillation counting analysis; type: protein-complex assay
Chain of Neuronal acetylcholine receptor; alpha4/beta4 (P09483 whole entry): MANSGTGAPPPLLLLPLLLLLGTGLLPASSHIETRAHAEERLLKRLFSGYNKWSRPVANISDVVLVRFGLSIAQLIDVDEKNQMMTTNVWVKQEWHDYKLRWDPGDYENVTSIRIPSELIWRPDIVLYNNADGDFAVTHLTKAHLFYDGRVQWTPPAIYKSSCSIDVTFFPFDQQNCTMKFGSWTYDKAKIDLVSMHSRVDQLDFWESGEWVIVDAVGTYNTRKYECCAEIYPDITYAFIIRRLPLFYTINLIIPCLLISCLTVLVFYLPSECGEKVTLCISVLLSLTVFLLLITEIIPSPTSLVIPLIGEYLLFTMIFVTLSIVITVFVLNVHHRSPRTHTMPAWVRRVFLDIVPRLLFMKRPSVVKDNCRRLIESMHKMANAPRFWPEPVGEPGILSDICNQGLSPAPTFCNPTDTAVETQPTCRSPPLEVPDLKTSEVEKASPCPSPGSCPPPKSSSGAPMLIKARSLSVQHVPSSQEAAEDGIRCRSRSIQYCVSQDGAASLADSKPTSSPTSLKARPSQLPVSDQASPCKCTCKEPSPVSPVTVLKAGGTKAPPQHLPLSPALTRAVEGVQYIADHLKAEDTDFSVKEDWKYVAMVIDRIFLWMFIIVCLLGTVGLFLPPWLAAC
Chain of Neuronal acetylcholine receptor; alpha4/beta4 (P12392 whole entry): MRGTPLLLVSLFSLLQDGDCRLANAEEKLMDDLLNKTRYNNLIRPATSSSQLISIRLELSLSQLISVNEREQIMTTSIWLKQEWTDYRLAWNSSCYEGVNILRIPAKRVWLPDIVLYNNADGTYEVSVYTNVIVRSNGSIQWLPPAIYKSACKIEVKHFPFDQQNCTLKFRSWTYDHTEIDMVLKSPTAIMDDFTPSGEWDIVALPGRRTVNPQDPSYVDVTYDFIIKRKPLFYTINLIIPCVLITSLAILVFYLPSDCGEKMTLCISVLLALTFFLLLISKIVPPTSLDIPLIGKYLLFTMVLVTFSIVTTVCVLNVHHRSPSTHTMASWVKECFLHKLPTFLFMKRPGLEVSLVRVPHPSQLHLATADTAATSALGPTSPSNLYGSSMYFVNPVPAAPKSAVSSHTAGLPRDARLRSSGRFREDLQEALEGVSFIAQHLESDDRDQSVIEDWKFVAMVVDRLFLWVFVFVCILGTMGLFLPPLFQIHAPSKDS

[6] = target: T1, Neuronal acetylcholine receptor; alpha4/beta2 (Rattus norvegicus, UniProt P09483+P12390); test: Displacement of [3H]epibatidine from alpha4beta2* nAChR in rat forebrain after 4 hrs by liquid scintillation counting analysis
T1 sequence (P09483 whole entry): as the sequence (P09483 whole entry) above
T1 sequence (P12390 whole entry): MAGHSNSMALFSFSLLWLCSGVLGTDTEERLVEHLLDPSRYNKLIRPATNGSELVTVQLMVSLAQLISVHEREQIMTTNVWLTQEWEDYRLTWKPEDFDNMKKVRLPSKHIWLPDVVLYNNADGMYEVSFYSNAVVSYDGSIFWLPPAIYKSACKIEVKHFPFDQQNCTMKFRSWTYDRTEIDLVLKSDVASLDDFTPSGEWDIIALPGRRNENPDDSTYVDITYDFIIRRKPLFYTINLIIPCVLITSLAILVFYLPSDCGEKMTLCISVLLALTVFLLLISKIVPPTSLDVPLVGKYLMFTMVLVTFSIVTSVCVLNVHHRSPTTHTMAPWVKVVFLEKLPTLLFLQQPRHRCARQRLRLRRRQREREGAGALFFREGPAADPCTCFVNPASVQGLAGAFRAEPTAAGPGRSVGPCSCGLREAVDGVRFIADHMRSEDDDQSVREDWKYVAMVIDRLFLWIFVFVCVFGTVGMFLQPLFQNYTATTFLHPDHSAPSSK

[7] = target: T1, Neuronal acetylcholine receptor; alpha4/beta2; test: Displacement of [3H]epibatidine from alpha4beta2 nAChR after 4 hrs by liquid scintillation counting analysis; type: protein-complex assay
[8] = target: Neuronal acetylcholine receptor; alpha3/beta4 (Rattus norvegicus, UniProt P04757+P12392); test: Displacement of [3H]epibatidine from alpha3beta4 nAChR after 4 hrs by liquid scintillation counting analysis; type: protein-complex assay
Chain of Neuronal acetylcholine receptor; alpha3/beta4 (P04757 whole entry): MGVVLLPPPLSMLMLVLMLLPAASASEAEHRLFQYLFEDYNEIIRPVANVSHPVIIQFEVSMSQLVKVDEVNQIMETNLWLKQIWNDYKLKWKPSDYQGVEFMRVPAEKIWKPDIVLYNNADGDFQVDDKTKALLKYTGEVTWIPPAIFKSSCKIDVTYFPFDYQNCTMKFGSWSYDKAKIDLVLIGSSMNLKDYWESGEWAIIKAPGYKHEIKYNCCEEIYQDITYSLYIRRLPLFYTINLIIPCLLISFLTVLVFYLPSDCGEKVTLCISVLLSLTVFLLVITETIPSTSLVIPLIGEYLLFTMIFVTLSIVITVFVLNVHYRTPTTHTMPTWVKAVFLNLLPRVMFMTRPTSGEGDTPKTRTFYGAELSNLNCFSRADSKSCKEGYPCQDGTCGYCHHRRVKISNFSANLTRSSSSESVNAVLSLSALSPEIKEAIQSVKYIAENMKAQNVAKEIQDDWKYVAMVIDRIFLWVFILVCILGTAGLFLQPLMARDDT
Chain of Neuronal acetylcholine receptor; alpha3/beta4 (P12392 whole entry): as the sequence (P12392 whole entry) above

[9] = target: Neuronal acetylcholine receptor; alpha3/beta2 (Rattus norvegicus, UniProt P04757+P12390); test: Displacement of [3H]epibatidine from alpha3beta2 nAChR after 4 hrs by liquid scintillation counting analysis; type: protein-complex assay
Chain of Neuronal acetylcholine receptor; alpha3/beta2 (P04757 whole entry): as the sequence (P04757 whole entry) above
Chain of Neuronal acetylcholine receptor; alpha3/beta2 (P12390 whole entry): as the sequence (P12390 whole entry) above

[10] = target: Neuronal acetylcholine receptor; alpha2/beta4 (Rattus norvegicus, UniProt P12389+P12392); test: Displacement of [3H]epibatidine from alpha2beta4 nAChR after 4 hrs by liquid scintillation counting analysis; type: protein-complex assay
Chain of Neuronal acetylcholine receptor; alpha2/beta4 (P12389 whole entry): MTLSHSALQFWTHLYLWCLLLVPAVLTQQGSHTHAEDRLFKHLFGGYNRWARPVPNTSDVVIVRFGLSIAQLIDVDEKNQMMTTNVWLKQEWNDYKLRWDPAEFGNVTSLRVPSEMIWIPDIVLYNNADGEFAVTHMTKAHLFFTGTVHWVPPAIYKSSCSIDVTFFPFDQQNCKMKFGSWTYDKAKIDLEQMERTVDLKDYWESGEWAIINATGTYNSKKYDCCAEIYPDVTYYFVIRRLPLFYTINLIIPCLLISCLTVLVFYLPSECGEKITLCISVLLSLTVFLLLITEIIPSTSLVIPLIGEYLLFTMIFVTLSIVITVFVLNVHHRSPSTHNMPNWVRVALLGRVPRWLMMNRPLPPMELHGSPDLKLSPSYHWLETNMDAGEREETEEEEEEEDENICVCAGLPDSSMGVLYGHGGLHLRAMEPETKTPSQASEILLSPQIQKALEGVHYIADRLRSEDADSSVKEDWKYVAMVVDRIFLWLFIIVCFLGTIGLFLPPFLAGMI
Chain of Neuronal acetylcholine receptor; alpha2/beta4 (P12392 whole entry): as the sequence (P12392 whole entry) above

Compound	Activity (PC-12)	Activity [1]	Ki [2]	further results
Cc1cc(OC[C@@H]2CCN2)on1	< 50%	< 50%	–	–
COCc1cc(OC[C@@H]2CCN2)no1	< 50%	< 50%	–	–
OCc1cc(OC[C@@H]2CCN2)on1	< 50%	< 50%	–	–
c1ccc(OCc2cc(OC[C@@H]3CCN3)on2)cc1	< 50%	–	328 nM	–
c1ccc(OCc2cc(OC[C@@H]3CCCN3)on2)cc1	< 50%	–	4.2 nM	–
c1c(OC[C@@H]2CCN2)noc1COCC1CC1	–	< 50%	–	Ki [3]: 369 nM
COC(=O)[C@@]1(c2ccccc2)C[C@H]1CN(C)C12CC3CC(CC(C3)C1)C2	–	–	–	Ki [4]: 2.1 nM
Cc1cc(OC[C@@H]2CCN2)no1	< 50%	< 50%	–	–
Clc1cncc(OCc2cc(OC[C@@H]3CCN3)no2)c1	< 50%	–	103 nM	Ki [5]: 5580 nM; Ki [6]: > 10000 nM; Ki [7]: 2220 nM; Ki [8]: 6100 nM; Ki [9]: > 10000 nM; Ki [10]: 1820 nM
